Structures can show the parent of a compound that is named as a salt. Where two headings read alike, the source gives them in different places.
Legend:
Rat FAAH = target: T1, Rat FAAH (Rattus norvegicus, UniProt P97612); test: Assay Method 2: rat FAAH assay (3H-anandamide hydrolysis in cell homogenate); format: biochemical; details: read-out: Assay 2 IC50
T1 construct: expressed in transfected cells; host or cells: SK-N-MC cells stably transfected with rat FAAH cDNA (G418 selection)
T1 sequence (P97612 1-579): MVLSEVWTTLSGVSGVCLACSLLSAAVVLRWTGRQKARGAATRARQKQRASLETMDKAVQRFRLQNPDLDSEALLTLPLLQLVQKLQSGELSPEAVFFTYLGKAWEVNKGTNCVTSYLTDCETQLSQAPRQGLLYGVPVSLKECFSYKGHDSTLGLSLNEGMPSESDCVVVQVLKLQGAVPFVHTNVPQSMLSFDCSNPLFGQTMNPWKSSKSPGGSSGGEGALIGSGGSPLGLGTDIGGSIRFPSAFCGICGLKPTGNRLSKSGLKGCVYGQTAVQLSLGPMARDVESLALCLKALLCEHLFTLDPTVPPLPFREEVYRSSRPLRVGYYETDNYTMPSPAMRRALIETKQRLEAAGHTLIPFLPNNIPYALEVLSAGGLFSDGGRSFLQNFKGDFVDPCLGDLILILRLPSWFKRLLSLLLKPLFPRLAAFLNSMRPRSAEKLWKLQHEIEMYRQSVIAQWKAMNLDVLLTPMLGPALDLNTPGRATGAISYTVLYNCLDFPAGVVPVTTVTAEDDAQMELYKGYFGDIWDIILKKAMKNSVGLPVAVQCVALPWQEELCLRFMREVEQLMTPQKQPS
Procedure, shortened: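 Homogenates of T84 cells or SK-N-MC cells stably transfected with rat FAAH, in pH 9 Tris/EDTA/glycerol/Triton buffer, incubated 1 h at room temperature with 3H-anandamide. Released labeled ethanolamine separated from substrate on activated charcoal and counted by scintillation; values averaged over runs.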

FAAH = target: T2, FAAH (Homo sapiens, UniProt O00519); test: Assay Method 1: human FAAH assay (3H-anandamide hydrolysis in cell homogenate); format: biochemical; design: expressed in transfected cells; host or cells: SK-N-MC cells stably transfected with human FAAH cDNA (G418 selection); alternatively T84 cell pellets
T2 sequence (O00519 1-579): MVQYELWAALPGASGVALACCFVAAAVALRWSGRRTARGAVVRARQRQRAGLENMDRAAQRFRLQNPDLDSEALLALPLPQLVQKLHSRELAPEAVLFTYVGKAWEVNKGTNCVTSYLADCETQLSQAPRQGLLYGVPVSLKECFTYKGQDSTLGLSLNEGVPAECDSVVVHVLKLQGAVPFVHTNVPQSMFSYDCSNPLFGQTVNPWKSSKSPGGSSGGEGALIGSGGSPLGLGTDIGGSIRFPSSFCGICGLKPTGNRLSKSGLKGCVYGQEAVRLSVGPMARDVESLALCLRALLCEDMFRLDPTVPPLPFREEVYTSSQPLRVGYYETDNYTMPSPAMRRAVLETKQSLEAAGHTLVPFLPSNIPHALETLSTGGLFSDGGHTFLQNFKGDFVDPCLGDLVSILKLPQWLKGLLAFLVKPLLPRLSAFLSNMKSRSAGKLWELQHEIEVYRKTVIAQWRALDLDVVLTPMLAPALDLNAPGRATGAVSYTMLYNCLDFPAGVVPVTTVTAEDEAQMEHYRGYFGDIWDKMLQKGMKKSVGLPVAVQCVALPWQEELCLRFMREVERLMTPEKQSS
Procedure, shortened: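 Homogenates of T84 cells or SK-N-MC cells stably transfected with human FAAH, in pH 9 Tris/EDTA buffer with 0.02% Triton X-100. Incubated 1 h at rt with compound and 80 nM (final) [3H-ethanolamine]-anandamide. Released 3H-ethanolamine separated on charcoal filters and counted by scintillation.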

Row | IC50 (Rat FAAH) | IC50 (FAAH; read-out: Assay 1 IC50) | Structure (SMILES) | IC50 (FAAH)
1 | 0.26 µM | 0.2 µM | O=C(Nc1ccc(-n2nccn2)nc1)N1CCC2(CCN(Cc3cccc(Oc4ccc(Cl)cc4)c3)CC2)C1 [Example 91, 8-[3-(4-Chloro-phenoxy)-benzyl]-2,8-diaza-spiro[4.5]decane-2-carboxylic acid (6-[1,2,3]triazol-2-yl-pyridin-3-yl)-amide, trifluoroacetic acid salt] | 
2 | 0.02 µM | 0.16 µM | O=C(Nc1noc2ccccc12)N1CCC2(CCN(Cc3cccc(Oc4ccc(Cl)cc4)c3)CC2)C1 [Example 92, 8-[3-(4-Chloro-phenoxy)-benzyl]-2,8-diaza-spiro[4.5]decane-2-carboxylic acid benzo[d]isoxazol-3-ylamide, trifluoroacetic acid salt] | 
3 | 0.48 µM | 1.1 µM | O=C(Nc1cccnc1)N1CCC2(CCCN2Cc2cccc(Oc3ccc(Cl)cc3)c2)CC1 [Example 93, 1-[3-(4-Chloro-phenoxy)-benzyl]-1,8-diaza-spiro[4.5]decane-8-carboxylic acid pyridin-3-ylamide] | 
4 | 0.58 µM | 0.37 µM | O=C(Nc1ccc(-n2nccn2)nc1)N1CCC2(CCCN2Cc2cccc(Oc3ccc(Cl)cc3)c2)CC1 [Example 94, 1-[3-(4-Chloro-phenoxy)-benzyl]-1,8-diaza-spiro[4.5]decane-8-carboxylic acid (6-[1,2,3]triazol-2-yl-pyridin-3-yl)-amide] | 
5 | 0.4 µM | 0.78 µM | O=C(Nc1cnc2[nH]ccc2c1)N1CCC2(CCCN2Cc2cccc(Oc3ccc(Cl)cc3)c2)CC1 [Example 95, 1-[3-(4-Chloro-phenoxy)-benzyl]-1,8-diaza-spiro[4.5]decane-8-carboxylic acid (1H-pyrrolo[2,3-b]pyridin-5-yl)-amide] | 
6 | > 10 µM | > 10 µM | O=C(Nc1cccnc1)N1CC2(CCN(Cc3ccccc3)CC2)C1 [Example 97, 7-Benzyl-2,7-diaza-spiro[3.5]nonane-2-carboxylic acid pyridin-3-ylamide] | 
7 | > 10 µM | 8 µM | O=C(Nc1cccnc1)N1CC2(CCN(Cc3ccc(Cl)cc3)CC2)C1 [Example 100, 7-(4-Chloro-benzyl)-2,7-diaza-spiro[3.5]nonane-2-carboxylic acid pyridin-3-ylamide] | 
8 | > 10 µM | 6 µM | O=C(Nc1cccnc1)N1CC2(CCN(Cc3ccc(Cl)c(Cl)c3)CC2)C1 [Example 101, 7-(3,4-dichlorobenzyl)-N-(pyridin-3-yl)-2,7-diazaspiro[3.5]nonane-2-carboxamide] | 
9 | > 10 µM | 1.3 µM | O=C(Nc1cccnc1)N1CC2(CCN(Cc3ccc(OC(F)(F)F)cc3)CC2)C1 [Example 103, N-(pyridin-3-yl)-7-(4-(trifluoromethoxy)benzyl)-2,7-diazaspiro[3.5]nonane-2-carboxamide] | 
10 | > 10 µM | 2.5 µM | O=C(Nc1cccnc1)N1CC2(CCN(Cc3ccc4ccccc4c3)CC2)C1 [Example 104, 7-(naphthalen-2-ylmethyl)-N-(pyridin-3-yl)-2,7-diazaspiro[3.5]nonane-2-carboxamide] | 
11 | 8 µM | 0.37 µM | O=C(Nc1cccnc1)N1CC2(CCN(Cc3cccc(C#Cc4ccccc4)c3)CC2)C1 [Example 105, 7-(3-(phenylethynyl)benzyl)-N-(pyridin-3-yl)-2,7-diazaspiro[3.5]nonane-2-carboxamide] | 
12 | > 10 µM | > 10 µM | CS(=O)(=O)c1ccc(CN2CCC3(CC2)CN(C(=O)Nc2cccnc2)C3)cc1 [Example 106, 7-(4-(methylsulfonyl)benzyl)-N-(pyridin-3-yl)-2,7-diazaspiro[3.5]nonane-2-carboxamide] | 
13 | > 10 µM | > 10 µM | O=C(Nc1cccnc1)N1CC2(CCN(Cc3ccccc3O)CC2)C1 [Example 107, 7-(2-hydroxybenzyl)-N-(pyridin-3-yl)-2,7-diazaspiro[3.5]nonane-2-carboxamide] | 
14 | > 10 µM | 8 µM | O=C(Nc1cccnc1)N1CC2(CCN(Cc3ccc4ccccc4c3O)CC2)C1 [Example 108, 7-((1-hydroxynaphthalen-2-yl)methyl)-N-(pyridin-3-yl)-2,7-diazaspiro[3.5]nonane-2-carboxamide] | 
15 | 6 µM | 1.3 µM | O=C(Nc1cccnc1)N1CC2(CCN(Cc3ccc(Cl)c(OC(F)(F)F)c3)CC2)C1 [Example 110, 7-(4-chloro-3-(trifluoromethoxy)benzyl)-N-(pyridin-3-yl)-2,7-diazaspiro[3.5]nonane-2-carboxamide] | 
16 | > 10 µM | 1.18 µM | O=C(Nc1cccnc1)N1CC2(CCN(Cc3ccc(OC(F)(F)F)c(Cl)c3)CC2)C1 [Example 111, 7-(3-chloro-4-(trifluoromethoxy)benzyl)-N-(pyridin-3-yl)-2,7-diazaspiro[3.5]nonane-2-carboxamide] | 
17 | 0.84 µM | 0.06 µM | O=C(Nc1cccnc1)N1CC2(CCN(Cc3cccc(Oc4cccc(Cl)c4)c3)CC2)C1 [Example 112, 7-(3-(3-chlorophenoxy)benzyl)-N-(pyridin-3-yl)-2,7-diazaspiro[3.5]nonane-2-carboxamide] | 
18 | 5 µM | 0.56 µM | O=C(Nc1cccnc1)N1CC2(CCN(Cc3cccc(Oc4ccc(F)c(C(F)(F)F)c4)c3)CC2)C1 [Example 113, 7-(3-(4-fluoro-3-(trifluoromethyl)phenoxy)benzyl)-N-(pyridin-3-yl)-2,7-diazaspiro[3.5]nonane-2-carboxamide] | 
19 | 4 µM | 0.8 µM | O=C(Nc1cccnc1)N1CC2(CCN(Cc3cccc(Oc4cccc(C(F)(F)F)c4)c3)CC2)C1 [Example 114, N-(pyridin-3-yl)-7-(3-(3-(trifluoromethyl)phenoxy)benzyl)-2,7-diazaspiro[3.5]nonane-2-carboxamide] | 
20 | 8 µM | 0.75 µM | O=C(Nc1cccnc1)N1CC2(CCN(Cc3cccc(Oc4cccc(OC(F)(F)F)c4)c3)CC2)C1 [Example 115, N-(pyridin-3-yl)-7-(3-(3-(trifluoromethoxy)phenoxy)benzyl)-2,7-diazaspiro[3.5]nonane-2-carboxamide] | 
21 | 7.07 µM | 0.07 µM | N#Cc1cccc(Oc2cccc(CN3CCC4(CC3)CN(C(=O)Nc3cccnc3)C4)c2)c1 [Example 116, 7-(3-(3-cyanophenoxy)benzyl)-N-(pyridin-3-yl)-2,7-diazaspiro[3.5]nonane-2-carboxamide] | 
22 | 3 µM | 3 µM | O=C(Nc1cccnc1)N1CC2(CCN(Cc3cccc(Oc4cccc(SC(F)(F)F)c4)c3)CC2)C1 [Example 117, N-(pyridin-3-yl)-7-(3-(3-(trifluoromethylthio)phenoxy)benzyl)-2,7-diazaspiro[3.5]nonane-2-carboxamide] | 
23 | 0.6 µM | 0.16 µM | O=C(Nc1cccnc1)N1CC2(CCN(Cc3cccc(Oc4ccc5c(c4)OC(F)(F)O5)c3)CC2)C1 [Example 118, 7-[3-(2,2-Difluoro-benzo[1,3]-dioxol-5-yloxy)-benzyl]-2,7-diaza-spiro[3.5]nonane-2-carboxylic acid pyridin-3-ylamide] | 

Row | Structure (SMILES) | IC50 (Rat FAAH) | IC50 (FAAH; read-out: Assay 1 IC50) | IC50 (FAAH)
24 | O=C(Nc1cccnc1)N1CC2(CCCN(Cc3cccc(Oc4ccc(Cl)cc4)c3)C2)C1 [Example 96, 6-[3-(4-Chloro-phenoxy)-benzyl]-2,6-diaza-spiro[3.5]nonane-2-carboxylic acid pyridin-3-ylamide] | 6 µM |  | 8 µM
